Test system: serum ferritin
Assay: Serum ferritin in chronic hepatitis C patients after oral administration for 24 weeks
Format: in vivo, human (patients suffering from chronic hepatitis C)
Details: patients with chronic hepatitis C, 50 mg/day or 200 mg/day in two divided doses, CLIA, percentage change vs level before administration
Protocol: To patients suffering from chronic hepatitis C, 22β-methoxyolean-12-ene-3β,24(4β)-diol was orally administered for 24 weeks, at a daily dose of 50 mg/day or 200 mg/day. The administration of 22β-methoxyolean-12-ene-3β,24(4β)-diol in each administration group was carried out by orally administering half of each daily dose twice a day after eating breakfast and dinner. For example, in the 50 mg/day administration group, each day 25 mg of the drug was orally administered after breakfast and 25 mg of the drug was orally administered after dinner. Immediately after the beginning of the administration, and after 2, 4, 8, 12, 16, 20, and 24 weeks from the beginning of the administration, serum samples were collected to determine serum ferritin contained in the samples. […] Serum ferritin was determined by a chemiluminescence immunoassay (CLIA) with reference to a method described in a protocol attached to Chemilumi ACS-Ferritin II (Bayer Medical). Each serum ferritin level contained in each serum sample collected was indicated as percentage, with the serum ferritin level before the administration of 22β-methoxyolean-12-ene-3β,24(4β)-diol regarded as […], and an average and a median of all patients were calculated.

CO[C@@H]1CC(C)(C)CC2C3=CCC4[C@@]5(C)CC[C@H](O)[C@](C)(CO)C5CC[C@@]4(C)[C@]3(C)CC[C@]21C (stereo partly drawn) [22β-methoxyolean-12-ene-3β,24(4β)-diol]
serum ferritin level: serum ferritin was lowered
